Tests used:
Format in all cases: in vivo, mouse
[1] = test system: bacterial counts in blood and multiple organs; assay: Microbial growth (CFU) from tissue homogenates and peripheral blood of septic mice; details: septic B6 mice; compared between vehicle, OCH and KRN7000 treatments
Protocol: Whole hearts, lungs (left and right), kidneys (left and right), spleen, and liver were removed from euthanized mice and homogenized in 5 mL of PBS. Homogenates were serially diluted 1:10 in PBS and plated on bovine heart infusion (BHI) agar. Plates were grown aerobically at 37° C. overnight to determine tissue colony-forming units (CFU). Intra-cardiac blood (10 μL) was collected in a heparinized syringe from the right ventricle, serially diluted 1:10 with PBS, and plated on BHIagar to determine blood CFU.

[2] = test system: serum IL-4 and IFN-γ; assay: Serum IL-4 and IFN-γ by ELISA after i.p. glycolipid injection into naïve B6 mice
Protocol: FIG. 10: Effect of glycolipid agonists on cytokine expression in naïve B6 mice, and on iNKT cells in septic B6 mice. (a) Naïve B6 mice were injected i.p. with 4 μg OCH or KRN7000 or C20:2, and bled at 2, 12, and 24 hours post-injection. Serum samples were assayed for IL-4 and IFN-γ by enzyme-linked immunosorbent assay (ELISA). […] Vehicle-treated mice had cytokine levels below limits of detection. (b) B6 mice were given an intraperitoneal injection of fecal slurry (500 μL of a 90 mg/mL solution) to induce IAS and concomitantly treated with 4 μg of vehicle, OCH, or KRN7000. After 24 hours, mice were sacrificed, and cell suspensions from the liver and spleen were stained for the flow cytometric detection of CD1d tetramer+ TCRβ+iNKT cells.
(§1) Lyophilized OCH was generously provided by the National Institutes of Health (NIH) Tetramer Core Facility (Emory University, Atlanta, Ga.). Each vial containing 0.2 mg of OCH was solubilized in a vehicle solution containing 1 mL of sterile distilled water, 0.5% Tween 20, 56 mg of sucrose and 7.5 mg of histidine, and stored as aliquots at 4° C. until use. KRN7000 (α-GalCer, C26:0/C18:0) was purchased from Funakoshi Co. Ltd. (Tokyo, Japan), solubilized at 1 mg/ml in dimethylsulphoxide (DMSO), and stored as aliquots at −20° C. until use (29); the control vehicle was 2% DMSO in phosphate-buffered saline (PBS). C20:2 was synthesized and used as previously published (30, 31). For in vivo experiments, mice were injected intraperitoneally (i.p.) with a single dose of glycolipid (4 μg/dose) (30) within twenty minutes after induction of IAS.
Cytokine concentrations were determined by commercially available specific ELISA assays for IL-4 and IFN-γ (Ready-Set-Go kits, eBioscience). ODs were measured on a Benchmark Microplate Reader (Bio-Rad) at a wavelength of 450 nm for both cytokines.

[3] = test system: splenic T, B, NK cells and macrophages; assay: Annexin V / 7-AAD flow cytometry of apoptotic splenic cell populations in septic B6 mice; details: for NK cell apoptosis / frequency of apoptotic macrophages: spleen; for frequency of apoptotic macrophages: compared to vehicle-treated mice
Excerpt: FIG. 7: Analysis of apoptotic cell populations in the spleens of septic B6 mice. Splenocytes from sham and septic B6 mice treated with OCH, KRN7000, or vehicle were stained for T, B, and Natural Killer (NK) cells, and macrophages, and further stained for Annexin V (a marker for early apoptosis) and 7-AAD viability dye. Early and late apoptotic cells (Annexin V+7AAD- and Annexin V+7AAD+ cells respectively) were quantified and compared between treatments. […] (n=3-6 mice per group). *p<0.05, **p<0.01, ***p<0.001 by one-way ANOVA with post-hoc Tukey's multiple comparison test. Data are representative of 3 independent experiments.
FIG. 8: Gating strategy to identify the percentage of apoptotic and necrotic immune cell populations. CD3-APC is shown as an example, but the same strategy was used for macrophages (F480-APC), B cells (B220-APC), and Natural Killer (NK) cells (NK1.1-PE).
Mouse hepatic, splenic, and omental cells (1×106), and human PBMCs (1×106) were washed with cold FACS buffer [PBS+2% fetal bovine serum (FBS)+0.1% sodium azide] and incubated with 5 μg/ml anti-mouse CD16/CD32 mAb (clone 2•4G2, Fc-block, eBiosciences) for 20 min on ice before staining with fluorescent monoclonal antibodies (mAbs) diluted in FACS buffer at 4° C. for 30-40 min. Cells were then washed and flow cytometry was performed using FACSCanto II (BD) with FlowJo software (Treestar).

[4] = test system: B6 mice with intra-abdominal sepsis (IAS); assay: Murine intra-abdominal sepsis (IAS) model: survival and murine sepsis score (MSS); details: septic B6 mice; for median survival: 4 μg i.p. single dose, vehicle 24 hours; for murine sepsis score (MSS) after 24 h: compared to vehicle treatment
Protocol: Stool from the cecum of euthanized naïve B6 mice was expressed through an enterotomy, homogenized, and suspended in 0.9% normal saline (NS) to produce a fecal slurry at a final concentration of 90 mg/mL, for use in experiments on the same day. Mice were injected intraperitoneally with 500 μL fecal slurry or 0.9% normal saline (sham group). The mice were monitored and scored by two independent investigators—one of whom was blinded to the treatment—every 2-3 hours for the first 12 hours, and then every 1-2 hours thereafter. A murine sepsis score (MSS) was assigned to each mouse based on activity, eye movement, response to exogenous stimuli, breathing rate and pattern, and degree of piloerection (Shrum et al. BMC Research Notes 2014, 7:233). The MSS is a reliable and robust scoring system that has excellent inter-rater reliability (intra-class coefficient=0.96), high internal consistency (Cronbach α=0.92), and correlates with levels of certain pro-inflammatory cytokines such as IFN-γ and IL-1β during the experimental timeline (Shrum et al. BMC Research Notes 2014, 7:233). Mice were euthanized at 24 hours, or earlier if they were deemed to be in significant distress based on our scoring model. Euthanasia was carried out as described above. At the time of sacrifice, intra-cardiac blood was drawn into 1.5 mL micro-centrifuge tubes (BD Biosciences) and centrifuged for serum at 1000×g for 30 minutes at 4° C.
as §1

[5] = compared to vehicle- and KRN7000-treated mice

Compound | microbial load (bacterial counts in blood and multiple organs) [1] | serum levels of IFN-γ between 12 and 24 hours ([2]; 4 μg i.p.) | NK cell apoptosis [3] | frequency of apoptotic macrophages [3] | response to auditory and touch stimuli [4] | median survival [4] | mortality ([4]; by 24 hours) | time to respiratory distress (laboured breathing and reduced respiratory rates) ([4]; most mice, post-sepsis) | murine sepsis score (MSS) after 24 h [4] | serum IFN-γ at 24 hours ([2]; 4 μg i.p.) | time of peak of serum IFN-γ ([2]; 4 μg i.p., ELISA) | time of peak of serum IL-4 ([2]; 4 μg i.p., ELISA) | serum IL-4 at 12 to 24 hours ([2]; 4 μg i.p., relative to 2 hour peak) | IL-4:IFN-γ ratio based on peak values ([2]; OCH compared to KRN7000) | apoptosis of splenic B cells [3, 5] | apoptosis of splenic T cells [3, 5] | survival time ([4]; 4 μg i.p.) | respiratory status ([4]; observed up to 24 hours) | course of MSS over time ([4]; up to 24 hours)
CCCCCCCCCCCCCCCCCCCCCCCCCC(=O)N[C@@H](CO[C@H]1O[C@H](CO)[C@H](O)[C@H](O)[C@H]1O)[C@H](O)[C@H](O)CCCCCCCCCCCCCC [KRN7000, reference compound] | similar | elevated | trend toward reduced apoptosis | reduced the frequency of apoptosis significantly | non-responsive | 22 h | 100% | ≤ 15 h | no statistical differences | – | – | – | – | – | – | – | – | – | –
CCCCCCCCCCCCCCCCCCCCCCCC(=O)N[C@@H](COC1OC(CO)C(O)C(O)C1O)[C@H](O)[C@H](O)CCCCC (stereo partly shown) [OCH] | did not worsen | – | appeared to be reduced | reduced the frequency of apoptosis significantly | more responsive | 28 h | – | – | significantly lower | almost undetectable | 12 h | 2 h | significantly reduced | higher | significantly reduced | significantly reduced | > 24 h | relatively normal respiratory rates | reached a plateau

From patent US20170027973A1, “MODULARION OF INVARIANT NATURAL KILLER T CELLS IN THE TREATMENT OF SEPSIS” (LONDON HEALTH SCIENCES CENTRE RESEARCH INC., priority 2014, published 2017)
